Assay results taken from patent publication US20120157356A1, “Hydraulic fracturing with slick water from dry blends” (priority 2010, published 2012).

Tests used:
Rats = settings: no unit in table, b36: normally expressed as mg per kilogram of body mass; cited from earlier work
[1] = Apparent density by volume increase of a dispersion of known weight of solid in mineral oil; assay type: physicochemical
Text: If batch mix operations (illustrated in FIG. 1) are used so that time of mixing is not critical, particle size of the components used in the blend can be as large as 18 mesh (1.0 mm). However, if the mixing is to be based on a continuous mix process (FIG. 2), timing becomes more critical, requiring that the polymeric components disperse and begin hydration prior to reaching the well head. In this case, the particle size of the components preferably is 40 mesh (0.420 mm) or smaller, but more preferably 80 mesh (0.177 mm) or smaller. Also, it is preferred that the particle size and the apparent density of all the components be about the same (to minimize segregation during shipping and storage). Apparent densities of selected commercial components, as measured by measuring volume increase of a dispersion of a known weight of solid in mineral oil, are shown in Table 2. A dry blend preferably will be formed of components for each function in a fracturing fluid having apparent densities and particle sizes matched to the best extent possible. Inert solids, such as fumed silica, may be combined with active ingredients to form solid particles having a preferred density.

[2] = Flowability: drainage time through a wide-mouth funnel; settings: dry powder flowability
Text: Also, the powder must be flowable (low angle of repose), with the flow measured as the drainage time through a wide-mouth funnel.

| SMILES | Acute Oral Effect LD50 Rats (Rats) | Apparent Density [1] [g/mL] | Time in Minutes (drainage time through a wide-mouth funnel) [2] [min] |
| --- | --- | --- | --- |
| C[N+](C)(C)CCO.[Cl-] [Choline Chloride] | 3,400 | – | – |
| CN1CSC(=S)N(C)C1 [Dazomet, tetrahydro-3,5-dimethyl-2H-1,3,5-thiadiazine-2-thione] | 519 | – | – |
| CN1CSC(=S)N(C)C1 [Dazomet 99%] | – | 1.111 | – |
| C[N+](C)(C)C.[Cl-] [Tetramethylammonium Chloride] | 94 | – | – |
| N.N.O=S(=O)(O)OOS(=O)(=O)O [Ammonium Persulfate] | – | – | 0.2 |
| Cc1cc(O)cc(C)c1Cl [PCMX] | 3,830 | – | – |
| O=C1O[C@H]([C@H](O)CO)C([O-])=C1O.[Na+] [Sodium Erythorbate] | 5,000 | – | – |
| [Cl-].[K+] [Potassium Chloride] | – | – | 0.05 |
| O=S([O-])O.[Na+] [Sodium Bisulfite] | 1,131 | – | – |
| O=S([O-])([O-])=S.[Na+].[Na+] [Sodium Thiosulfate] | 2,890 | 1.667 | – |
